Laboratory results reported in patent US11166949B2, “NURR1 activation in the treatment of metabolic disorders and as an exercise mimetic” (The Board of Regents of the University of Texas System, priority 2016, dated 2021).
Entries after “also recorded” stand apart in the source; their conditions may differ.

Key:
ob/ob mice [1] = assay: AQ treatment of leptin deficient (ob/ob) mice: body weight, food intake; type: in vivo
Procedure: Animals. Animals were housed in a pathogen free barrier facility with a 12 hour light/dark cycle and maintained on standard chow (2916 Teklad Global). The Nurr1 transcript was amplified from Invitrogen library with Nurr1-specific primers. Nurr1 was cloned into a plasmid containing the human skeletal muscle actin promoter and human GH (hGH) poly(A) signal. Nurr1 transgenic mice (referred as Nurr1-mTg) were backcrossed with C57/BL6J mice for more than four generations. C57BL/6J, ob/ob and db/db mice were obtained from Jackson Laboratories. Male mice were used in all experiments. For HFD (60% fat calories; D12492, Research Diet), mice were fed from the age of 5 weeks to the indicated times. Tissues were taken in the fed state except when otherwise mentioned. Drug treatments. […] Isoxazolo-pyridinone 7e (IP7e) was purchased from Millipore and dissolved in Tween 80 in a 10× stock solution. To obtain the final concentration (1×; 10 mg/kg) IP7e was dissolved in saline solution (0.9% NaCl). IP7e treatment by gavage was performed once a day. Control animals received the Tween 80 dissolved saline solution (0.9% NaCl, vehicle).

[2] = Serum insulin and triglyceride levels; type: in vivo; details: WT-HFD-AQ vs WT-HFD mice, after 10 weeks on HFD, postprandial
Procedure: Plasma and tissue chemistry. Blood was collected using a 1 ml syringe coated in 0.5 M K2EDTA and serum collected by centrifugation for 20 min at 1000×g. Insulin and leptin levels were measured by ELISA. Serum triglycerides levels were measured using the Ortho Vitros 250 chemistry system. To measure triglyceride in the liver and skeletal muscle, tissue specimens were frozen immediately after isolation and pulverized in liquid nitrogen with a cell crusher. Serum and tissue triglyceride levels were measured by Mouse Metabolic Phenotyping Core Facility at University of Texas Southwestern Medical Center.

Nurr1 = Nurr1 (Homo sapiens, UniProt P43354); details: cited from earlier work
WT mice on HFD = assay: Liver TRIG accumulation / hepatic steatosis in response to HFD; type: in vivo; details: for hepatic steatosis: WT mice on HFD
Procedure: (§1) Histology. WAT, BAT and liver were isolated and fixed in 4% paraformaldehyde (PFA) and processed for H&E staining. For oil red O staining, liver tissues were fixed in 4% PFA overnight, incubated in 12% sucrose for 12 hours then in 18% sucrose overnight before being cryoembedded and sectioned by the UT Southwestern Histology Core Facility. For skeletal muscle fiber analysis, tissues were frozen in liquid-nitrogen precooled isopentane, and 8 μm sections were used for H&E and fiber type staining. Plasma and tissue chemistry. Blood was collected using a 1 ml syringe coated in 0.5 M K2EDTA and serum collected by centrifugation for 20 min at 1000×g. Insulin and leptin levels were measured by ELISA. Serum triglycerides levels were measured using the Ortho Vitros 250 chemistry system. To measure triglyceride in the liver and skeletal muscle, tissue specimens were frozen immediately after isolation and pulverized in liquid nitrogen with a cell crusher. Serum and tissue triglyceride levels were measured by Mouse Metabolic Phenotyping Core Facility at University of Texas Southwestern Medical Center.

mice on HFD = assay: Glucose tolerance test and insulin tolerance test; type: in vivo
Procedure: Glucose uptake and insulin tolerance. Glucose tolerance test and insulin tolerance test were performed as previously described. For glucose tolerance test, mice were fasted for 6 hr and injected intraperitoneally with a glucose solution (0.15 g/ml, 158968 from Sigma-Aldrich, St. Louis, Mo.) at 1.5 g/kg body weight. Blood glucose concentrations were measured before and 15, 30, 60 and 90 min after glucose injection. For insulin tolerance test, mice […] for 6 hours were injected intraperitoneally with insulin (Human insulin 19278 from Sigma-Aldrich, St. Louis, Mo.) at 1.0 U/kg body weight. Blood glucose concentrations were measured before and 15, 30, 60 and 90 min after insulin injection.

ob/ob mice [3] = assay: Liver TRIG accumulation in ob/ob mice; type: in vivo
Procedure: as §1

[4] = tested on: chloroquine-resistant Plasmodium falciparum; details: chloroquine-resistant Plasmodium falciparum malaria infections; cited from earlier work
[5] = mouse, in vivo
[6] = tested on: WT mice on normal chow and HFD; assay: Nurr1 agonist treatment of WT mice on normal chow and HFD: weight gain, food intake, body composition, adipose histology; type: in vivo; details: for weight gain: WT mice on normal chow
Procedure: Animals. Animals were housed in a pathogen free barrier facility with a 12 hour light/dark cycle and maintained on standard chow (2916 Teklad Global). The Nurr1 transcript was amplified from Invitrogen library with Nurr1-specific primers. Nurr1 was cloned into a plasmid containing the human skeletal muscle actin promoter and human GH (hGH) poly(A) signal. Nurr1 transgenic mice (referred as Nurr1-mTg) were backcrossed with C57/BL6J mice for more than four generations. C57BL/6J, ob/ob and db/db mice were obtained from Jackson Laboratories. Male mice were used in all experiments. For HFD (60% fat calories; D12492, Research Diet), mice were fed from the age of 5 weeks to the indicated times. Tissues were taken in the fed state except when otherwise mentioned. Drug treatments. […] Isoxazolo-pyridinone 7e (IP7e) was purchased from Millipore and dissolved in Tween 80 in a 10× stock solution. To obtain the final concentration (1×; 10 mg/kg) IP7e was dissolved in saline solution (0.9% NaCl). IP7e treatment by gavage was performed once a day. Control animals received the Tween 80 dissolved saline solution (0.9% NaCl, vehicle). Histology. WAT, BAT and liver were isolated and fixed in 4% paraformaldehyde (PFA) and processed for H&E staining. For oil red O staining, liver tissues were fixed in 4% PFA overnight, incubated in 12% sucrose for 12 hours then in 18% sucrose overnight before being cryoembedded and sectioned by the UT Southwestern Histology Core Facility. For skeletal muscle fiber analysis, tissues were frozen in liquid-nitrogen precooled isopentane, and 8 μm sections were used for H&E and fiber type staining. Metabolic chambers and whole-body composition analysis. Metabolic phenotyping of WT and Nurr1-mTg mice on HFD was performed using TSE metabolic chamber analysis by the Mouse Metabolic Phenotyping Core Facility at University of Texas Southwestern Medical Center. Thirteen week old mice on HFD were placed in TSE metabolic chambers for an initial 5 days acclimation period, followed by a 4.5 days experimental period with data collection. Whole-body composition parameters were measured by magnetic resonance imaging (MRI) using a Bruker Minispec mq10 system.

[7] = Metabolic cages (energy expenditure); type: in vivo; details: WT-HFD-AQ compared to WT mice, normalized to lean mass
[8] = tested on: dopaminergic neurons in the substantia nigra pars compacta; details: MPTPp-treated mice, cited from earlier work
BV-2 microglia = details: cited from earlier work
NF-κB = details: NF-κB-GFP reporter cells; cited from earlier work
[9] = cited from earlier work
[10] = ob/ob mice on normal chow, AQ in drinking water, 4 weeks
[11] = WT-HFD-AQ compared to WT-HFD mice

Sequence of Nurr1 (P43354 whole entry): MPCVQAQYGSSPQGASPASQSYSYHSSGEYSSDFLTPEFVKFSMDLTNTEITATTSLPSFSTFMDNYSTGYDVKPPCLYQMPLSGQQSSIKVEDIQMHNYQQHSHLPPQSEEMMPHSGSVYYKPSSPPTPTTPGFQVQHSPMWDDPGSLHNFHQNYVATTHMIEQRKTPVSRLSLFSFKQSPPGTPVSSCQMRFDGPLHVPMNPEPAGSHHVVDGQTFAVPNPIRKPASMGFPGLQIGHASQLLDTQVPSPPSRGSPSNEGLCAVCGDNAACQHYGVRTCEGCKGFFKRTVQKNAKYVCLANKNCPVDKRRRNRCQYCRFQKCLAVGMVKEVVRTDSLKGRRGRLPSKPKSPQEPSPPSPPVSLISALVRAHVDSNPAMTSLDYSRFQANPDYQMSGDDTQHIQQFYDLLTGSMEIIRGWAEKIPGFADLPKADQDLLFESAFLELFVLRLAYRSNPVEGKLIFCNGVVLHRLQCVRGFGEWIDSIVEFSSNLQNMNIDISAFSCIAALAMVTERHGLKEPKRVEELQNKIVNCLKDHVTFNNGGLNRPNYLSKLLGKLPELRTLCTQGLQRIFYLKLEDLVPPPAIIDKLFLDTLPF

CCN(CC)Cc1cc(Nc2ccnc3cc(Cl)ccc23)ccc1O [AQ, amodiaquine]
body weight (ob/ob mice [1]; [10]): lose weight
weight gain (ob/ob mice [1]; [10]): resistant to weight gain
food intake (chow consumed) (ob/ob mice [1]; ob/ob mice, AQ 4 weeks): comparable quantities; also recorded: does not affect
serum insulin levels [2]: significantly lower
serum triglyceride levels [2]: significantly lower
Nurr1 activation levels (Nurr1; among three compounds sharing a 4-amino-7-chloroquinoline scaffold): highest activation levels
hepatic steatosis (WT mice on HFD; AQ): resistant to the hepatic steatosis; also recorded: prevents hepatic steatosis
decrease in hepatic TRIG levels (WT mice on HFD; WT-HFD-AQ mice vs WT on HFD): 50%
glucose tolerance (mice on HFD; AQ): dramatic improvement
insulin tolerance (mice on HFD; AQ): dramatic improvement
decrease in Tg levels (liver) (ob/ob mice [3]; ob/ob mice treated with AQ compared to non treated mice, 4 weeks): 66%
liver TRIG accumulation / hepatic steatosis (ob/ob mice [3]; ob/ob mice treated with AQ, histological and biochemical analysis): significant decrease; also recorded: recovers hepatic steatosis ob/ob mice to normal levels
efficacy compared with chloroquine [4]: more effective than chloroquine
toxic effects [5]: no toxic effects
obesity on HFD ([6]; WT mice on HFD, AQ in drinking water ad libitum, 10 weeks): completely prevented obesity; also recorded: confers resistance to obesity
body weights ([6]; WT mice on HFD, AQ in drinking water, 10 weeks): comparable to mice on normal chow
food consumption / food intake ([6]; WT mice on HFD, AQ vs control mice on HFD): no difference; also recorded: does not affect
weight gain ([6]; AQ in drinking water ad libitum, 10 weeks): no effect
adipocyte size in white adipose tissue [6, 11]: decreases
fat mass [6, 11]: significant decrease; also recorded: decreases
lean mass composition [6, 11]: increase
CO2 production [7]: significant increase
O2 consumption [7]: significant increase

Clc1ccc(C(c2c[nH]c3ccccc23)c2c[nH]c3ccccc23)cc1 [C-DIM12, 1,1-bis(3′-indolyl)-1-(p-chlorophenyl) methane]
neuroprotective activity ([8]; daily oral gavage): greatest neuroprotective activity
suppressing activation of microglia and astrocytes [8]: most potent compound
LPS-induced expression of NF-κB-regulated genes (NOS2, IL-6, CCL2) (BV-2 microglia): inhibited
NF-κB activation (NF-κB): decreased

COCCOCc1ccc(-c2cc3onc(-c4ccccc4)c3c(=O)n2C)cc1 [IP7e, Isoxazolo-pyridinone 7e]
Nurr1-dependent transcriptional activity (Nurr1): potent activator
hepatic steatosis (WT mice on HFD; IP7e): resistant to the hepatic steatosis; also recorded: prevents hepatic steatosis
decrease in hepatic TRIG levels (WT mice on HFD; WT-HFD-IP7e mice): 48%
glucose handling (glucose tolerance) (mice on HFD; IP7e): improvement
obesity on HFD ([6]; WT mice on HFD, IP7e 10 mg/kg oral gavage once a day, 5 weeks): prevented obesity; also recorded: confers resistance to obesity
food consumption / food intake ([6]; WT mice on HFD, IP7e vs control mice on HFD): no difference
food consumption / food intake ([6]; WT mice on HFD, IP7e vs control mice on HFD, listed as IP7): does not affect
weight gain ([6]; IP7e 10 mg/kg oral gavage once a day, 5 weeks): no impact

CCN(CCO)CCCC(C)Nc1ccnc2cc(Cl)ccc12 (stereo not shown) [hydroxy-chloroquine]
glucose level ([9]; high doses, individuals with type 2 diabetes without autoimmune conditions, two clinical trials): lowers glucose level
risk of developing diabetes ([9]; patients with autoimmune inflammatory arthritis, three clinical observational studies): lower risk
